From the OligoGym collection come the findings set out here.

“And” between values parts separate entries of the source, which are not always exact repeats. Equal values may be shown once. After the bases stand the sugars from the 5' end (letter, count) and the backbone: PS all phosphorothioate, else s phosphorothioate and o phosphodiester by linkage. Methylation of C is not given here. e = 2'-O-(2-methoxyethyl) (MOE); k = constrained ethyl (cEt); d = 2'-deoxy (DNA)

This data set deals with IRF4. To be noted: ASO.

Regarding GACAAGTGGCGCAGAC (sugars k3 d10 k3, PS), the target mRNA inhibition (SK-MEL-28, 4 µM) came to 11%.
Turning to GACAATGGAGATACTT (sugars k3 d10 k3, PS), the target mRNA inhibition (MM.1R, 1 µM) is 33% and 37%.
With “GACACTTTTAGAGAGG (sugars kkdddddddddekeke, PS)”, where the note is “MM.1R, 1 µM”, the target mRNA inhibition worked out at 22%.
On the same count and under the same terms, as for “GACACTTTTAGAGAGG (sugars kkkddddddddkekek, PS)”, the figure is -8%.
As for GACAGCTAAAGAACAC (sugars k3 d10 k3, PS), for the setting “SK-MEL-28, 4 µM”, the target mRNA inhibition came out at 19%.
On to GACAGCTTCTTTGAAG (sugars k3 d10 k3, PS), for which the target mRNA inhibition (SK-MEL-28, 4 µM) is 36%.
Regarding “GACAGTGACTTGCATC (sugars kddddddddddkekek, PS)”, the target mRNA inhibition (MM.1R, 1 µM) is 8%.
Take GACATAAAGGACCCCG (sugars k3 d10 k3, PS): where the note is “MM.1R, 1 µM”, the target mRNA inhibition turned out to be 8%.
Regarding GACATATTTGCTTTGG (sugars k3 d10 k3, PS), the target mRNA inhibition (SK-MEL-28, 4 µM) was determined as 58%.
On to GACCATGTTACACTTT (sugars k3 d10 k3, PS), for which the target mRNA inhibition (SK-MEL-28, 4 µM) was determined as 50%.
As to GACGAACGCGCAAAAC (sugars k3 d10 k3, PS), the target mRNA inhibition (MM.1R, 1 µM) came to 15%.
As for GACGACAGCTGCGGAG (sugars k3 d10 k3, PS), the target mRNA inhibition (SK-MEL-28, 4 µM) was determined as 45%.
As for GACTCCGGGAGCCTGG (sugars k3 d10 k3, PS), under “SK-MEL-28, 4 µM”, the target mRNA inhibition amounted to 65%.
Consider GACTGACAGCCGAAGC (sugars k3 d10 k3, PS), for which the target mRNA inhibition (MM.1R, 1 µM) worked out at 27%.
GACTGGAACATTGTTG (sugars k3 d10 k3, PS): the target mRNA inhibition (MM.1R, 1 µM) was -41%.
Still for that read-out and setting: the result for GACTGGAGTGAACCCT (sugars k3 d10 k3, PS) reads 38%.
As to GACTTAGTCAGAATCT (sugars k3 d10 k3, PS), the target mRNA inhibition (MM.1R, 1 µM) turned out to be 10%.
GAGAAAACTCCTGAGT (sugars k3 d10 k3, PS): the target mRNA inhibition (SK-MEL-28, 4 µM) was determined as 5%.
Regarding GAGAAACGGCCTGGAG (sugars k3 d10 k3, PS), the target mRNA inhibition (SK-MEL-28, 4 µM) worked out at 44%.
Consider GAGAGCCTTCACGCAC (sugars k3 d10 k3, PS), for which the target mRNA inhibition (SK-MEL-28, 4 µM) came to 23%.
As for GAGATAGGAAGCACTG (sugars k3 d10 k3, PS), the target mRNA inhibition (SK-MEL-28, 4 µM) came to 48%.
GAGATATTAATTACTG (sugars k3 d10 k3, PS): the target mRNA inhibition (SK-MEL-28, 4 µM) was found to be 63%.
On to GAGCCAACTTATAGCA (sugars k3 d10 k3, PS), for which the target mRNA inhibition (MM.1R, 1 µM) was 11% and 8%.
With GAGCTGCTTGGCTCCT (sugars k3 d10 k3, PS), the target mRNA inhibition (SK-MEL-28, 4 µM) is 19%.
Still for that read-out and setting: as for GAGCTGTGATGAGCTT (sugars k3 d10 k3, PS), the figure is 10%.
Turning to GAGCTTTCTTTGCCTC (sugars k3 d10 k3, PS), the target mRNA inhibition (SK-MEL-28, 4 µM) amounted to 13%.
As to GAGGACCTCGCCTGCG (sugars k3 d10 k3, PS), the target mRNA inhibition (SK-MEL-28, 4 µM) is -2%.
For GAGGACTTCGGGAGAT (sugars k3 d10 k3, PS), the target mRNA inhibition (SK-MEL-28, 4 µM) is 23%.
On to GAGGGTCTGGAAACTC (sugars k3 d10 k3, PS), for which the target mRNA inhibition (SK-MEL-28, 4 µM) was -4%.
For GAGGTCTTTGGGATTC (sugars k3 d10 k3, PS), the target mRNA inhibition (SK-MEL-28, 4 µM) amounted to 74%.
GAGGTTCGCTGAATTG (sugars k3 d10 k3, PS): under “SK-MEL-28, 4 µM”, the target mRNA inhibition stood at 30%.
As to GAGGTTGCCGAGATAT (sugars k3 d10 k3, PS), where the note is “MM.1R, 1 µM”, the target mRNA inhibition worked out at 29%.
GAGTATTTCATAGCTA (sugars k3 d10 k3, PS): where the note is “SK-MEL-28, 4 µM”, the target mRNA inhibition was found to be 71%.
As to GAGTGTGCAGTTCCGT (sugars k3 d10 k3, PS), the target mRNA inhibition (SK-MEL-28, 4 µM) was found to be 67%.
For GAGTTACCGCATTGCT (sugars k3 d10 k3, PS), the target mRNA inhibition (MM.1R, 0.0625 µM) is -9%; the target mRNA inhibition (MM.1R, 0.25 µM) is 16%; the target mRNA inhibition (MM.1R, 1 µM) was 47% and 52%; the target mRNA inhibition (MM.1R, 4 µM) came out at 81%.
As for GATAAGAAGCACTGGC (sugars k3 d10 k3, PS), the target mRNA inhibition (SK-MEL-28, 4 µM) is 63%.
As to GATATAAATAGCTGTT (sugars k3 d10 k3, PS), where the note is “SK-MEL-28, 4 µM”, the target mRNA inhibition turned out to be 37%.
Turning to GATATTAGAGACTGTA (sugars k3 d10 k3, PS), where the note is “SK-MEL-28, 4 µM”, the target mRNA inhibition was found to be 51%.
In the case of GATCATCAACTTCTTT (sugars k3 d10 k3, PS), the target mRNA inhibition (SK-MEL-28, 4 µM) turned out to be 43%.
Consider GATCGAGCGGTGAAAC (sugars k3 d10 k3, PS), for which the target mRNA inhibition (SK-MEL-28, 4 µM) is 23%.
Take GATGAGAATTCCAAAC (sugars k3 d10 k3, PS): the target mRNA inhibition by setting is: (MM.1R, 0.0625 µM) -1%; (MM.1R, 0.074 µM) 0%; (MM.1R, 0.222 µM) 2%; (MM.1R, 0.25 µM) 2%; (MM.1R, 0.666 µM) 0%; (MM.1R, 1 µM) 14%. The target mRNA inhibition was determined as 32% (MM.1R, 2 µM); 36% (MM.1R, 4 µM); 84% (SK-MEL-28, 4 µM).
In the case of GATGAGATATTCCTCT (sugars k3 d10 k3, PS), the target mRNA inhibition (MM.1R, 1 µM) is -24%.
Consider GATGCAGCTGGCCACA (sugars k3 d10 k3, PS), for which the target mRNA inhibition (SK-MEL-28, 4 µM) was 73%.
